{
  "source": "patent EP0101786A1",
  "about": "“Use of a benzoisothiazoline derivative for the manufacture of a medicament against thrombosis and platelet aggregation” (GREEN CROSS CORPORATION, priority 1982, dated 1984)",
  "key": {"[1]": {"test_system": "platelet aggregation initiated by promoter ADP (platelet-rich plasma)", "assay": "Inhibition of ADP-induced platelet aggregation (aggregometer, nephelometry)", "assay_type": "cell-based", "settings": "2 min; for inhibition at 10 µg/mL: final conc. 10 γ/ml (10.0 γ/ml); for inhibition at 3 µg/mL: final conc. 3.0 γ/ml", "description": "The inhibitory activity of BIT (1) compounds against platelet aggregation initiated by promoter ADP was determined for various amounts of the BIT (1) compounds. […] Silicon-coated cuvettes on the Aggregometer were filled with 0.8 ml of diluted platelet-rich plasma (containing 300,000 to 400,000 platelets per cmm) and 0.1 ml of solutions of the BIT (1) compounds listed in Table 1 having different concentration (0.3 y/ml, 1.0 γ/ml and 3.0 y/ml as dissolved in 100% alcohol), as well as adenosine (20 y/ml and 100 y/ml) and aspirin (500 y/ml) were added. Following 2-minute incubation, ADP was added to give a final concentration of 10^-5 M. The final volume of each sample was 1 ml. The process of platelet aggregation was monitored with the recorder pen which traced aggregation curves.\nThe percent inhibition of aggregation was calculated by the following formula: [formula] wherein M represents light transmittance for maximum aggregation in 100 % ethanol (Control);\nD represents light transmittance for maximum aggregation in the specific sample."}, "[2]": {"test_system": "platelets (platelet-rich plasma, ADP-aggregated)", "assay": "Acceleration of platelet disaggregation after ADP-induced maximum aggregation", "assay_type": "cell-based", "settings": "5 minutes after addition, control about 12 %", "description": "ADP was added to platelet-rich plasma as used in (1) above, and when maximum aggregation was reached, BIT (1) compound (R=n-C3H7, X-Cl) was added to check its ability to accelerate the disaggregation of platelets. In this experiment, the procedure of experiment (1) was repeated except that the BIT (1) was added after the aggregation of platelets occurred. To give final concentrations of 1.0 γ/ml, 3.0 y/ml and 6.0 y/ml as dissolved in 100 % ethanol, 0.1 ml of solutions containing 10 γ/ml, 30 γ/ml and 60 y/ml of BIT (1) were added after maximum platelet aggregation took place. As a control, 100 % ethanol was added instead of the BIT (1). The degree of disaggregation was determined by measuring the absorbance of the test samples 5 minuts after the addition of the BIT (1) as against the absorbance for maximum aggregation in that sample."}, "[3]": {"assay": "Acute toxicity test, oral, Litchfield-Wilcoxon method", "settings": "mouse, in vivo, male ddy mice, suspension in distilled water with 0.5 % carboxymethyl cellulose", "description": "A group of 10 male ddy mice each weighing […] were subject to an acute toxicity test with BIT (1) (R=n-C3H7, X-Cl) which was administered to the mice orally as suspensions in distilled water for injection that contained 0.5 % of carboxymethyl cellulose."}, "[4]": {"settings": "ADP 10^-5 M, 2-minute incubation"}},
  "data": [
    {"smiles": "Nc1ncnc2c1ncn2[C@@H]1O[C@H](CO)[C@@H](O)[C@H]1O", "note": "[Adenosine, reference compound]", "values": [
      {"measurement": "inhibition at 2 µg/mL", "setting": "[1]; final conc. 2 γ/ml, ADP 10^-5 M, 2-minute incubation", "value": 47, "unit": "%"},
      {"measurement": "inhibition at 10 µg/mL", "setting": "[1]; [4]", "value": 62, "unit": "%"}
    ]},
    {"smiles": "CC(=O)Oc1ccccc1C(=O)O", "note": "[Aspirin, reference compound]", "values": [
      {"measurement": "inhibition at 50 µg/mL", "setting": "[1]; read-out: Inhibition of platelet aggregation", "value": 0, "unit": "%"}
    ]},
    {"smiles": "O=c1[nH]sc2cc(Cl)ccc12", "note": "[BIT (R=H) (X=Cl)]", "values": [
      {"measurement": "inhibition at 10 µg/mL", "setting": "[1]; [4]", "value": 100, "unit": "%"}
    ]},
    {"smiles": "CCCn1sc2cc(Cl)ccc2c1=O", "note": "[BIT (R=n-C3H7) (X=Cl), 6-chloro-2-n-propyl-1,2-benzoisothiazolin-3-one]", "values": [
      {"measurement": "inhibition at 0.3 µg/mL", "setting": "[1]; final conc. 0.3 γ/ml, ADP 10^-5 M, 2-minute incubation", "value": 18, "unit": "%"},
      {"measurement": "inhibition at 1 µg/mL", "setting": "[1]; final conc. 1.0 γ/ml, ADP 10^-5 M, 2-minute incubation", "value": 43, "unit": "%"},
      {"measurement": "inhibition at 3 µg/mL", "setting": "[1]; [4]", "value": 100, "unit": "%"},
      {"measurement": "disaggregation level", "setting": "[2]; final concentration 1.0 γ/ml", "value": 25, "unit": "%"},
      {"measurement": "disaggregation level", "setting": "[2]; final concentration 3.0 γ/ml", "value": 47, "unit": "%"},
      {"measurement": "disaggregation level", "setting": "[2]; final concentration 6.0 γ/ml", "value": 64, "unit": "%"},
      {"measurement": "LD50", "setting": "[3]", "value": 6500, "unit": "mg/kg"}
    ]},
    {"smiles": "CCCCCCn1sc2cc(Cl)ccc2c1=O", "note": "[BIT (R=n-C6H13) (X=Cl), 6-chloro-2-n-hexyl-1,2-benzoisothiazolin-3-one]", "values": [
      {"measurement": "inhibition at 3 µg/mL", "setting": "[1]; [4]", "value": 100, "unit": "%"}
    ]},
    {"smiles": "CCCCCCCCCCn1sc2cc(Cl)ccc2c1=O", "note": "[BIT (R=n-C10H21) (X=Cl), 6-chloro-2-n-decyl-1,2-benzoiso-thiazolin-3-one]", "values": [
      {"measurement": "inhibition at 3 µg/mL", "setting": "[1]; [4]", "value": 100, "unit": "%"}
    ]}
  ]
}
